Laboratory results from ChEMBL document CHEMBL1201862, “PubChem BioAssay data set” (2004).
Where “and” joins values, the source holds several entries; their conditions need not be identical. Equal values may be shown once. Calls of active or inactive are those of the source.

How the values were obtained:
[1] = biological target: T1, Endoribonuclease toxin MazF (Escherichia coli K-12, UniProt P0AE70); test: activation of MazEF endoribonuclease cleavage – biochemical, fluorescence, single-stranded RNA substrate, uHTS hits, dose response (AID 588481); type: functional
T1 sequence (P0AE70 whole entry): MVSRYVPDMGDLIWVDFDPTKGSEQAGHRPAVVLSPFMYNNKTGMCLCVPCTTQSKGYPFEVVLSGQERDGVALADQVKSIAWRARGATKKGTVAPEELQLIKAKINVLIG

[2] = biological target: Heat shock protein HSP 90-alpha (Homo sapiens, UniProt P07900); type: functional, organism-based
[3] = microbe, parasite or virus in culture; type: functional; details: Mycobacterium tuberculosis
[4] = biological target: T2, Intestinal-type alkaline phosphatase (Homo sapiens, UniProt P09923); test: human intestinal alkaline phosphatase activators, dose response, biochemical, luminescence, uHTS hits (AID 463120); type: functional
[5] = biological target: T1, Endoribonuclease toxin MazF; test: substrate-only fluorescence increase artefacts – biochemical, single-stranded RNase substrate, counter-screen for MazEF activator project, dose response (AID 588502); type: functional
[6] = biological target: T2, Intestinal-type alkaline phosphatase; test: activation of human intestinal alkaline phosphatase – biochemical, luminescent, uHTS hits, set 2, dose response (AID 488817); type: functional;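 further: potency of activators that raise enzyme activity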
Exodeoxyribonuclease V = biological target: T3, Exodeoxyribonuclease V (Escherichia coli (strain K12), UniProt P04993+P07648+P08394); test: RecBCD inhibition via phage-restricted bacterial growth – absorbance, V66 E. coli, mutant T4 phage, counter-screen for AddAB inhibitor project, dose response (AID 492957); type: functional, cell-based, Escherichia coli str. K-12 substr. MG1655
T3 sequence (P04993 whole entry): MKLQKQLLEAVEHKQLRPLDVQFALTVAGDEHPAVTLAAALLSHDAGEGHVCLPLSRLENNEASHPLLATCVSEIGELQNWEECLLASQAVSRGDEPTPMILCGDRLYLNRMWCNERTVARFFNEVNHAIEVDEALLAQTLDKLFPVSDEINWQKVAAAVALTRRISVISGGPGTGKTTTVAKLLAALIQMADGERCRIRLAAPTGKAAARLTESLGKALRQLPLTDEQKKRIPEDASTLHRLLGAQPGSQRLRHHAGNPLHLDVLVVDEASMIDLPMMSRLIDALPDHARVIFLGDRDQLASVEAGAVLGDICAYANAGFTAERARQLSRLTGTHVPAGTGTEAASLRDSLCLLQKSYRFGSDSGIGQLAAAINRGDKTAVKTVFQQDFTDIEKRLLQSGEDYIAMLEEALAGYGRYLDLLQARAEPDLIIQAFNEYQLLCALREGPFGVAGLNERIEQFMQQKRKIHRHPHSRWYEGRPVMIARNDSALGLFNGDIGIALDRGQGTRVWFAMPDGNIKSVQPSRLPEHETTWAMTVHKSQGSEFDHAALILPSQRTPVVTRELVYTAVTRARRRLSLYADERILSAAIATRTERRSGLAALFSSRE
T3 sequence (P07648 whole entry): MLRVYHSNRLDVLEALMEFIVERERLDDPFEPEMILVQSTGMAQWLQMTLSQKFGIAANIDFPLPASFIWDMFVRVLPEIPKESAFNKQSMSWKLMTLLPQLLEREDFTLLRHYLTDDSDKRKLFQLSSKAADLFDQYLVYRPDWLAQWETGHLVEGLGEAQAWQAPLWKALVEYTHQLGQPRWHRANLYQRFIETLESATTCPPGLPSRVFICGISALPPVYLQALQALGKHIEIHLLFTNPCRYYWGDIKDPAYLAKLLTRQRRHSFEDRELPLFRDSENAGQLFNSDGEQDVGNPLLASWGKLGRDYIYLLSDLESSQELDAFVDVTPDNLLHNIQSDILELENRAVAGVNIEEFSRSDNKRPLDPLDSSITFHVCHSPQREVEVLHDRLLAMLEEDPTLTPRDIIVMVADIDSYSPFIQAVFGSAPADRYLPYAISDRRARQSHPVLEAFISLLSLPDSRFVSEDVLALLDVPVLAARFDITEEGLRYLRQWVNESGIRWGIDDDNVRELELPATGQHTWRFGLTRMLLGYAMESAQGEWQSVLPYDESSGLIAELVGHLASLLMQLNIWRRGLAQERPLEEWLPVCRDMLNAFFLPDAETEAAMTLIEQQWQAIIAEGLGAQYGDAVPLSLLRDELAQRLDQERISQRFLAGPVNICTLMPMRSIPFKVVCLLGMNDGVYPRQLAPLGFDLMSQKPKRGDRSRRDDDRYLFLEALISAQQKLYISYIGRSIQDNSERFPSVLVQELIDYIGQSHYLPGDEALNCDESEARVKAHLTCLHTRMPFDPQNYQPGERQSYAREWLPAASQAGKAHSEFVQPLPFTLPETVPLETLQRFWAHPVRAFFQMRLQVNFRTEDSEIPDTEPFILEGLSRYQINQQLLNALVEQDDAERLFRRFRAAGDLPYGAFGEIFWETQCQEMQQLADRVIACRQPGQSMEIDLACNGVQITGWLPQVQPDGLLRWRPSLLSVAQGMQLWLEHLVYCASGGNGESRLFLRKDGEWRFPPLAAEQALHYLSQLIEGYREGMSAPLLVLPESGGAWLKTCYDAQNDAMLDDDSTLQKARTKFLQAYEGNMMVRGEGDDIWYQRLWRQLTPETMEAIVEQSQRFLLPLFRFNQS
T3 sequence (P08394 whole entry): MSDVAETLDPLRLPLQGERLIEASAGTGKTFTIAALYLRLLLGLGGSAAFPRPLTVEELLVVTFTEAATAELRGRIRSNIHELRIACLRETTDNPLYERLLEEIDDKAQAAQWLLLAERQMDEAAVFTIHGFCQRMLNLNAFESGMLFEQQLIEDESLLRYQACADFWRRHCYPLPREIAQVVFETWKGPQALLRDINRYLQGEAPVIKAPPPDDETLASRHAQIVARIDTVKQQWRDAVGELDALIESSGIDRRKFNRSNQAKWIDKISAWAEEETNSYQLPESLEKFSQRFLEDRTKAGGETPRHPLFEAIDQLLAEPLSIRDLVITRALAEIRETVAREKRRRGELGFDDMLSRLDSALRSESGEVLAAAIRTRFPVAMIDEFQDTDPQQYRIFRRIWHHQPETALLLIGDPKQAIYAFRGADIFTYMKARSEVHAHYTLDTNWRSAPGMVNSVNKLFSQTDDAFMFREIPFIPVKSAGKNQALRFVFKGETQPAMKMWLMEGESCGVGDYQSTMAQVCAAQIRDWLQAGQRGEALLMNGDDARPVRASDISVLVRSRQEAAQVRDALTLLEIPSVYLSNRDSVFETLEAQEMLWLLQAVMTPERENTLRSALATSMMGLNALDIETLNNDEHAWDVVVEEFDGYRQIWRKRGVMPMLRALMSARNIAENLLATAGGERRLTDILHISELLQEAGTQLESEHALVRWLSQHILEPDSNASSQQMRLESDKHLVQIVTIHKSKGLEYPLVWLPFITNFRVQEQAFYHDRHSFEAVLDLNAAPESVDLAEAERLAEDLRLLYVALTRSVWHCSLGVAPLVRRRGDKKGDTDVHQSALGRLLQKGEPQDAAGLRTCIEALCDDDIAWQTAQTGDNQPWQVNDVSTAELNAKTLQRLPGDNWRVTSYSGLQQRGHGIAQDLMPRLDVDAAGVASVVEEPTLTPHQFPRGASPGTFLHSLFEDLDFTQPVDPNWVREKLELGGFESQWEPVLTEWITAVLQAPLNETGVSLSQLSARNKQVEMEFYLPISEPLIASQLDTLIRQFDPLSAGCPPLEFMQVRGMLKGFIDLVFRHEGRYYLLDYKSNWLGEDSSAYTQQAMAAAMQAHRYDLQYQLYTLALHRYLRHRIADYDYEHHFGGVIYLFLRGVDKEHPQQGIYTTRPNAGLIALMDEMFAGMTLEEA

[7] = biological target: Intestinal-type alkaline phosphatase (Mus musculus, UniProt P24822); test: PubChem AID 488874; type: functional
[8] = Counterscreen for AddAB inhibitors: absorbance-based bacterial cell-based high throughput dose response assay for inhibitors of bacterial viability. [Related pubchem assays (depositor defined):AID435030, AID449728, AID449731, AID488942, AID488955, AID488956]; type: functional
Troponin, cardiac muscle = Troponin, cardiac muscle (Homo sapiens, UniProt P19429+P45379+P63316); test: Fluorescence-based biochemical high throughput dose response assay for activators of the calcium sensitivity of cardiac Regulated Thin Filaments (RTF). [Related pubchem assays (depositor defined):AID493008, AID493018, AID504382, AID504383]; type: protein-complex assay
[9] = compound autofluorescence in calcium buffer – biochemical, fluorescence, no RTF in test wells, artefact control for cardiac thin filament activator project, dose response (AID 504697)
[10] = biological target: Tyrosine-protein phosphatase non-receptor type 12 (Homo sapiens, UniProt Q05209); test: SAR Selectivity Analysis of small molecule inhibitors of PEST using pCAP in a fluorescence assay. [Related pubchem assays (depositor defined):AID1779, AID1784, AID2135]; type: functional
[11] = biological target: Induced myeloid leukemia cell differentiation protein Mcl-1 (Homo sapiens, UniProt Q07820); type: functional
[12] = biological target: T4, Tyrosine-protein phosphatase non-receptor type 22 (Homo sapiens, UniProt Q9Y2R2); test: SAR LYP1 Fluorescent Assay using OMFP substrate for In Vitro dose response studies - Set 3. [Related pubchem assays (depositor defined):AID1779, AID1784, AID2140, AID2686]; type: functional
T4 sequence (Q9Y2R2 whole entry): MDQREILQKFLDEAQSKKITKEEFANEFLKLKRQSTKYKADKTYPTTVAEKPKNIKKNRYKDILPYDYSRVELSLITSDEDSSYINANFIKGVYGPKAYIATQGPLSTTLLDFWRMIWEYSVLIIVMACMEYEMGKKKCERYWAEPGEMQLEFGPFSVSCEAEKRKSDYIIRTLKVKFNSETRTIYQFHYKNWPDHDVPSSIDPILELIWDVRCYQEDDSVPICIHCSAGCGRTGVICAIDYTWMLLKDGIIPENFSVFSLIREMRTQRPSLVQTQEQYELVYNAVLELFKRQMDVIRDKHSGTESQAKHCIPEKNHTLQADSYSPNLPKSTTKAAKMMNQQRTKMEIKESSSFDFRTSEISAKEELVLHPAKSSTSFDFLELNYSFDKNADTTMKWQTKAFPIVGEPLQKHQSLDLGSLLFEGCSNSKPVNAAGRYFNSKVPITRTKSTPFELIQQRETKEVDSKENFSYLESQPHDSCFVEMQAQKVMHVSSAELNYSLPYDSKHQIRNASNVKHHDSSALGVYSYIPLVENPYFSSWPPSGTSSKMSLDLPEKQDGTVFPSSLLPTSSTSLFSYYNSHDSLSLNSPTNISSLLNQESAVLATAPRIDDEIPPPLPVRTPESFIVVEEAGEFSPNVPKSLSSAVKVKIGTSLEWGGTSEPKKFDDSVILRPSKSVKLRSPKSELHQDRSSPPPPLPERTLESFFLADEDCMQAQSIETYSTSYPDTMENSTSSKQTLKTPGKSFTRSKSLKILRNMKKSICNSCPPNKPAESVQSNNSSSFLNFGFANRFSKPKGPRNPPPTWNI

[13] = biological target: T5, Tyrosine-protein phosphatase non-receptor type 7 (Homo sapiens, UniProt P35236); test: inhibition of hematopoietic tyrosine phosphatase HePTP – biochemical, set 2, SAR follow-up (AID 449736); type: functional
T5 sequence (P35236 whole entry): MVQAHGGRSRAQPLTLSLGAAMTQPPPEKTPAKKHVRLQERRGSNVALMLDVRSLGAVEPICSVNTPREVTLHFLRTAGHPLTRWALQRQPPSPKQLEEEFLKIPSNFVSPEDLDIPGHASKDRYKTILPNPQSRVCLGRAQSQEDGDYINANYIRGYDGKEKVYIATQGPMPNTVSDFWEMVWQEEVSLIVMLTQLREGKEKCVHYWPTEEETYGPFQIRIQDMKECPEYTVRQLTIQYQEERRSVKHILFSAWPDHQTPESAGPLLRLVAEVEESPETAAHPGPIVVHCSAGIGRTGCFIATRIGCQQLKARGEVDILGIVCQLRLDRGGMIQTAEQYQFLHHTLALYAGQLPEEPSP

[14] = biological target: T4, Tyrosine-protein phosphatase non-receptor type 22; test: inhibition of lymphoid tyrosine phosphatase LYP – biochemical, pCAP fluorogenic substrate, fluorescence, set 3, SAR follow-up (AID 449727); type: functional
Large T antigen = Large T antigen (Simian virus 40, UniProt P03070); type: functional, Betapolyomavirus macacae;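 further: Confirmatory-stage PubChem screen for compounds that inhibit SV40 T antigen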
Large T antigen, sequence (P03070 whole entry): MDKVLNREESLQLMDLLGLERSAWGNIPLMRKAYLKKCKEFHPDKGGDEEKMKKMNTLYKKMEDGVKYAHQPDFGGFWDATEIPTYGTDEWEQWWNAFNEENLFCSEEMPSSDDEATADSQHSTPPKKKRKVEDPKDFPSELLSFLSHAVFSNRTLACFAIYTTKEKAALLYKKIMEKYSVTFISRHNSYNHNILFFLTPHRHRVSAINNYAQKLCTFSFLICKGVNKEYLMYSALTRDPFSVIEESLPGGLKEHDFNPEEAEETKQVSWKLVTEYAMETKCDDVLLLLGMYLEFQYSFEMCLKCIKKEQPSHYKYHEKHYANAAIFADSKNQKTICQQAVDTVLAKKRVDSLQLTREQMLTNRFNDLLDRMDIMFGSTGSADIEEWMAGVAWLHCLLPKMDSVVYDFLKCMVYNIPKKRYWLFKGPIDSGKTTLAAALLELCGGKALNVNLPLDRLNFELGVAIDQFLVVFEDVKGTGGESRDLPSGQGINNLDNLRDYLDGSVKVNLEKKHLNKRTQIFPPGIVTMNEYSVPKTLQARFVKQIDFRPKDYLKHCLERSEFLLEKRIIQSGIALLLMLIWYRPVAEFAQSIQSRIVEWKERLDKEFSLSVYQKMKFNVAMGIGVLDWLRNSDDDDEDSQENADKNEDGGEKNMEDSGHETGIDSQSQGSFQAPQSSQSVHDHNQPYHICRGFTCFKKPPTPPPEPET

Tyrosine-protein phosphatase non-receptor type 12, sequence (Q05209 whole entry): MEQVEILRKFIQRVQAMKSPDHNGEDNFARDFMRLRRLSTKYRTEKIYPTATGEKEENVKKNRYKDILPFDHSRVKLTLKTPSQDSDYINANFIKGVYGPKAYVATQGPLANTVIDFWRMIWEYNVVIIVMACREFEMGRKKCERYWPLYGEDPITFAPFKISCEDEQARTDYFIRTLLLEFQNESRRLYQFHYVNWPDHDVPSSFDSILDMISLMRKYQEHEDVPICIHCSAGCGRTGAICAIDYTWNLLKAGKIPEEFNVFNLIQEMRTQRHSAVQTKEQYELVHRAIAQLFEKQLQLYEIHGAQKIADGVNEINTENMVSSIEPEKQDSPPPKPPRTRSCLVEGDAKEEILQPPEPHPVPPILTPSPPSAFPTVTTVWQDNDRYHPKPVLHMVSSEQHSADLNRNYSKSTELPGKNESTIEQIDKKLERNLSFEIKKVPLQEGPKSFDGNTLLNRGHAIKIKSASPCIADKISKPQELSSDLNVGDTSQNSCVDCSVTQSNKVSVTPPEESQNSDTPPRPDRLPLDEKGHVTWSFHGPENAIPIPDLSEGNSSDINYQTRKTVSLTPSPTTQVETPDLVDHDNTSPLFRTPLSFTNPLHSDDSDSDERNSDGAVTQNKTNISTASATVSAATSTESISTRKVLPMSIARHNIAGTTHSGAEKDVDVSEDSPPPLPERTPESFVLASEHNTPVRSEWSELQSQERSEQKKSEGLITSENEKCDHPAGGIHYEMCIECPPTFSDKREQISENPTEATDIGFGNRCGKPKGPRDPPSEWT
T2 sequence (P09923 whole entry): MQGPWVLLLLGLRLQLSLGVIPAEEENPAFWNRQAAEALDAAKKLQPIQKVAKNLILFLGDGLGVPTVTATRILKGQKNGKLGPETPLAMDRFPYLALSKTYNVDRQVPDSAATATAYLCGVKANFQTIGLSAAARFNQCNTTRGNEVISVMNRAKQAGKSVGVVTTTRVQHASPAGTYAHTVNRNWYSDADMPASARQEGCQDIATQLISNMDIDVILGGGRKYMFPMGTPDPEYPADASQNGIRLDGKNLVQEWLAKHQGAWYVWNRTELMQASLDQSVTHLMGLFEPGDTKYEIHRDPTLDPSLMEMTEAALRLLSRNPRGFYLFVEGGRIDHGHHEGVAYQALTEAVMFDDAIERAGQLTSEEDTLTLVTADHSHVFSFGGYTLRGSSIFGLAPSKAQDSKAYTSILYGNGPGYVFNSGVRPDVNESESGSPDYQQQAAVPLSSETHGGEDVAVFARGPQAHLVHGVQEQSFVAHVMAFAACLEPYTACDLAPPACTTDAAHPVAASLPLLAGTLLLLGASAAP
Induced myeloid leukemia cell differentiation protein Mcl-1, sequence (Q07820 whole entry): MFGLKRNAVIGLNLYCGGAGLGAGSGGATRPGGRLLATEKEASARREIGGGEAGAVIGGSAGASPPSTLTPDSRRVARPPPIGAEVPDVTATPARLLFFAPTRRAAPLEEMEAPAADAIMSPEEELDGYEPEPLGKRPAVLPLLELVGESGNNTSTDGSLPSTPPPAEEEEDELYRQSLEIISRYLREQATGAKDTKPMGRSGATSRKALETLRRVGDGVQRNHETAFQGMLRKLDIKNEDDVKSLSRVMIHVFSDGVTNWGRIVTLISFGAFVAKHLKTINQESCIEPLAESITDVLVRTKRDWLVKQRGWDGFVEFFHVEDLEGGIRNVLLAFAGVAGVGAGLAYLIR
Intestinal-type alkaline phosphatase (Mus musculus, UniProt P24822), sequence (P24822 whole entry): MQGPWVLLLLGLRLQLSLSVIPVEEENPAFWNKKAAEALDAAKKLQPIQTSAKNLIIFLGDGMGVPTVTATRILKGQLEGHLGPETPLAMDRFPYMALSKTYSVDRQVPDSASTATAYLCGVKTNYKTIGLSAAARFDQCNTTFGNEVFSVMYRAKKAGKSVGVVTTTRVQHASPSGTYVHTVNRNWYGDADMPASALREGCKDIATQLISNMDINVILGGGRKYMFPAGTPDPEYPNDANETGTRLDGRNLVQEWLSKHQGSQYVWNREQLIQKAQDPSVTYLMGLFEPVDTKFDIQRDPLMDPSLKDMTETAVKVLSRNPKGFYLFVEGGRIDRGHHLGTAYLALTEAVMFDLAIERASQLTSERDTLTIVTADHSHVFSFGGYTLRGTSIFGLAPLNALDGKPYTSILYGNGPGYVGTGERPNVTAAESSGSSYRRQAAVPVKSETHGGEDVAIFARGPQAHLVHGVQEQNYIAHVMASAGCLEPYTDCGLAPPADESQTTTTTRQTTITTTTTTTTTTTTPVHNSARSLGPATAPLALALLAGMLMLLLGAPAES

For C=CCN1C(=O)/C(=N/Nc2ccccc2O)c2ccccc21, the EC50 [1] was > 99 µM (inactive), the AC50 [2] was 10.9 µM (active) and the CC50 [3] was 38.1 µM (active). The EC50 [4] was 8.62 µM (active), the EC50 [5] was 46.3 µM (inactive) and the EC50 [6] was 0.378 µM (active). The IC50 (Exodeoxyribonuclease V) was > 118 µM (inactive), the IC50 [7] was 9.81 µM (active) and the IC50 [8] was 42.8 µM (inactive).

For N#C/C(=C/c1ccc(-c2ccccc2)o1)c1nc(-c2cccs2)cs1, the EC50 (Troponin, cardiac muscle) was 0.615 µM (active) and the EC50 [9] was > 7.94 µM (active).

In the case of CC(/C=C1\SC(=S)N(CCCC(=O)Nc2ccc(C(=O)O)c(O)c2)C1=O)=C\c1ccccc1, the IC50 [10] is reported as 14 µM (active) and 9.91 µM (active), the IC50 [11] is reported as 1.56 µM (active) and the IC50 [12] is reported as 49.1 µM (active) and 44.9 µM (active). For the same molecule, the IC50 [13] was 739 nM (active) and 703 nM (active), the IC50 [14] was 37.9 µM (active) and 40.9 µM (active) and the IC50 (Large T antigen) was > 100 µM (active).
